# Measured values: patent US20120184624A1, “Treatment of Alzheimer's Disease” (priority 2010, published 2012)
# Read-outs that look alike come from different tables or passages of the source.
# Legend:
# PP2A-holoenzymes = test: PP2A activity assay (malachite green), PP2A-holoenzymes immunopurified from HeLa cell lysates; format: biochemical; conditions: 10 mM metformin, 1 hour
# Description: (§1) Either purified PP2Ac (upstate), cell lysates or PP2A-holoenzymes, which were purified by immunoprecipitation using a PP2A-A-subunit antibody (Millipore), were incubated with or without 10 mM metformin or 10 nM okadaic acid for 1 hour. Afterwards PP2A phosphatase activity was determined using a malachite green assay kit (upstate) following the manufacturer's instructions.
# ACC = test: Phosphorylation of the AMPK target ACC (Ser79) in primary cortical neurons; format: cell-based, mouse; conditions: 2.5 mM metformin, increasing time intervals
# Description: (§2) Primary cortical neurons were isolated from brain of wt or transgenic (Mapt^tm1(EGFP)klt Tg(MAPT)8cPdav/J; Jackson Laboratory) embryos at day 14.5. Cortices were collected in DMEM (Lonza) and cells were dissociated by incubation with Trypsin/EDTA for 6.5 min at 37° C. Cells were then diluted in neurobasal medium (Gibco-BRL) containing B27 supplement (Gibco BRL). Cells were plated at a density of 4.0×10^5 onto 0.2 mg/ml poly-D-lysin (Sigma) and 2 μg/ml Laminin (Sigma) coated 12 well plates. Neurons were incubated at 37° C. with 8% CO2. One hour after seeding a complete change of medium was performed. Later on, each 96 hours half volumes of the medium were replaced by fresh medium. After 7 days in culture neurons were treated.
# (§3) Cells were incubated with the respective substances as follows: Metformin (Sigma) at final concentrations up to 2.5 mM for 1 to >24 hours, okadaic acid (Sigma) at final concentrations from 1 nM to 10 nM for 4 h, Fostricien (Sigma) at final concentration of 1 μM for 4 h and AICAR (cell signalling) at final concentration of 5 mM for 0.5-16 h. For cell treatment without insulin, medium containing B27+insulin supplement was replaced with medium containing B27-supplement without insulin 24 h before treatment. […]
# (§4) Cell pellets were homogenized in Magic-Mix (48% UREA, 15 mM Tris-HCL pH 7.5, 8.7% Glycerin, 1% SDS, 0.004% Bromphenolblue, 143 mM Mercaptoethanol), sonicated and boiled for 5 min at 95° C. […] Antibodies used in this study were purchased from the following companies: Tau-5 (Biosource), anti-human PHF pSer202 (Thermo scientific), Tau pSer356 (Biosource), Tau pSer262 (Biosource), Tau pSer396 (Sigma), Actin (Sigma), ACC (cell signalling), ACC pSer79 (cell signalling), phospho-S6 ribosomal protein pSer241/244 (cell signalling), p70S6 Kinase (cell signalling), p70S6K pThr421/pSer424 (cell signalling), mTOR (cell signalling), AMPK (cell signallling, AMPK pThr172 (cell singnaling), HRP-anti-rabbit (Amersham), HRP-anti-mouse (Dianova). The resulting bands were quantified using Imagequant5.2. […]
# primary cortical neurons = test: TUNEL assay on primary cortical neurons; format: cell-based, mouse; conditions: increasing concentrations of metformin, concentrations sufficient to induce tau dephosphorylation
# Description: Primary neurons were grown on coverslips with a density of 2×10^5 per 12 well. TUNEL assays were performed using TUNEL enzyme (Roche) and TUNEL label (Roche) following the manufacturer's instructions.
# ribosomal protein S6 = test: Phosphorylation of S6 in rat hepatoma cell line H4IIE; format: cell-based; conditions: 2.5 mM, 16 hours
# Description: (§5) Cell pellets were homogenized in Magic-Mix (48% UREA, 15 mM Tris-HCL pH 7.5, 8.7% Glycerin, 1% SDS, 0.004% Bromphenolblue, 143 mM Mercaptoethanol), sonicated and boiled for 5 min at 95° C. Proteins were resolved on 8 or 10% SDS gels and blotted onto PVDF-membranes (Roche). Antibodies used in this study were purchased from the following companies: Tau-5 (Biosource), anti-human PHF pSer202 (Thermo scientific), Tau pSer356 (Biosource), Tau pSer262 (Biosource), Tau pSer396 (Sigma), Actin (Sigma), ACC (cell signalling), ACC pSer79 (cell signalling), phospho-S6 ribosomal protein pSer241/244 (cell signalling), p70S6 Kinase (cell signalling), p70S6K pThr421/pSer424 (cell signalling), mTOR (cell signalling), AMPK (cell signallling, AMPK pThr172 (cell singnaling), HRP-anti-rabbit (Amersham), HRP-anti-mouse (Dianova). The resulting bands were quantified using Imagequant5.2. Statistical analyses were performed using SigmaStat software package (v 3.0, SPSS, USA). For timecourse or dose-response studies, data were analyses by one-way ANOVA with post hoc Dunnett's or Bonferonni test to accommodate for multiple comparisons. A Student's t-test was used for two-group comparisons, as appropriate.
# tau [1] = format: cell-based, mouse
# Description: as §2
# (§6) Cells were incubated with the respective substances as follows: Metformin (Sigma) at final concentrations up to 2.5 mM for 1 to >24 hours, okadaic acid (Sigma) at final concentrations from 1 nM to 10 nM for 4 h, Fostricien (Sigma) at final concentration of 1 μM for 4 h and AICAR (cell signalling) at final concentration of 5 mM for 0.5-16 h. For cell treatment without insulin, medium containing B27+insulin supplement was replaced with medium containing B27-supplement without insulin 24 h before treatment. 3 groups of 2 mice were treated with or without 5 mg/l metformin in the drinking water.
# as §5
# AMPK [2] = test: Brain AMPK phosphorylation in mice fed metformin in the drinking water; format: in vivo, mouse; conditions: 5 mg/ml in the drinking water for 16-24 days
# Description: as §3
# (§7) Mice were decapitated and brains were rapidly dissected in nitrogen. […]
# as §4
# human tau = test: Tau phosphorylation by Western blot in primary cortical neurons of mice expressing human tau; format: cell-based; conditions: increasing concentration of metformin over 4 hours
# Description: as §2
# as §6, with “water. […]” for “water.”
# tau [3] = test: Brain tau phosphorylation in mice fed metformin in the drinking water; format: in vivo, mouse; conditions: 5 mg/ml in the drinking water for 16-24 days
# Description: as §3
# Mice were decapitated and brains were rapidly dissected in nitrogen. Brains were homogenized in ice-cold lysis buffer containing 10 mmol/l Tris pH 7.5, 150 mM NaCl, 1 mM EDTA, 1 mM EGTA, 1% NP40, protease inhibitors(complete mini, Roche), phosphatase inhibitors (PhosStop, Roche). Lysates were sonicated and centrifuged at 25000 g for 10 min at 4° C.
# as §5
# GSK3β = test: Phosphorylation of GSK3β (pSer9) in primary cortical neurons; format: cell-based, mouse; conditions: 2.5 mM metformin over increasing time intervals
# Description: as §2
# Cell pellets were homogenized in Magic-Mix (48% UREA, 15 mM Tris-HCL pH 7.5, 8.7% Glycerin, 1% SDS, 0.004% Bromphenolblue, 143 mM Mercaptoethanol), sonicated and boiled for 5 min at 95° C. Proteins were resolved on 8 or 10% SDS gels and blotted onto PVDF-membranes (Roche). […]
# PP2A = molecular target: T1, PP2A (Mus musculus, UniProt P63330); test: PP2A activity in lysates of metformin-treated primary neurons; format: cell-based; set-up: dose or concentration left out as unconfirmed
# T1 construct: treated primary neurons with metformin and analyzed PP2A activity in the cell lysates; endogenous in cells; host or cells: primary neurons
# Description: Afterwards PP2A phosphatase activity was determined using a malachite green assay kit (upstate) following the manufacturer's instructions.
# p70S6kinase = test: Phosphorylation of p70S6kinase in primary cortical neurons; format: cell-based, mouse; conditions: 2.5 mM metformin over increasing time intervals
# Description: as §2, §6, §5
# [4] = 2 mg/ml in the drinking water fed to mice for 6 days; cited from earlier work
# [5] = dosages applied to patients with Type II Diabetes; cited from earlier work
# [6] = test system: ribosomal protein S6 (S241/244); test: Phosphorylation of ribosomal protein S6 (mTORC1 signalling) in primary neurons from wild-type mice; format: cell-based, mouse
# Description: as §2
# as §6, with “water. […]” for “water.”
# S6 = test: Brain S6 phosphorylation in mice fed metformin in the drinking water; format: in vivo, mouse; conditions: 5 mg/ml in the drinking water for 16-24 days
# Description: as §3, §7, §4
# AMPK [7] = test: Phosphorylation of AMPK (pThr 172) in primary cortical neurons; format: cell-based, mouse
# Description: as §2, §3, §4
# α4-PP2Ac association = molecular target: T2, α4-PP2Ac association (Homo sapiens, UniProt P67775+P78318); test: Co-immunoprecipitation of PP2Ac and V5-tagged α4 in HeLa cell lysates; format: binding; conditions: 2.5 mM metformin added to lysates of α4-V5 expressing HeLa cells
# T2 construct: expressed in transfected cells; host or cells: HeLa
# [8] = molecular target: T3, purified PP2Ac (catalytic subunit of PP2A) (Homo sapiens, UniProt P67775); test: PP2A activity assay (malachite green), purified PP2Ac; format: biochemical; conditions: 10 mM metformin, 1 hour
# T3 construct: purchased upstate
# Description: as §1
# MID1-α4-PP2Ac complex = molecular target: T4, MID1-α4-PP2Ac complex (Homo sapiens, UniProt P67775+P78318); test: Affinity chromatography of the PP2Ac-MID1 B-box-α4 complex; format: binding; conditions: metformin at different concentrations in the washing buffer
# T4 construct: made in house; host or cells: E. coli BL21
# Description: The MID1-B-box-domains, α4, or HIS-tagged PP2Ac were expressed in E. coli BL21. Cells were lysed by French press in buffer A (50 mM Na-phosphate, 300 mM NaCl, 20 mM imidazole, pH 8.0). Lysates were mixed and PP2A-protein complexes were immobilized on Ni-NTA columns (Qiagen) and washed extensively with buffer A containing 10% glycerol and 0.25% Tween20. After washing columns were eluted with buffer A containing different concentrations of metformin. Elutions were analyzed on SDS-Gels followed by Coomassie staining.
# [9] = 2.5 mM, different time intervals, observed after 2-4 hours
# T3 sequence (P67775 whole entry): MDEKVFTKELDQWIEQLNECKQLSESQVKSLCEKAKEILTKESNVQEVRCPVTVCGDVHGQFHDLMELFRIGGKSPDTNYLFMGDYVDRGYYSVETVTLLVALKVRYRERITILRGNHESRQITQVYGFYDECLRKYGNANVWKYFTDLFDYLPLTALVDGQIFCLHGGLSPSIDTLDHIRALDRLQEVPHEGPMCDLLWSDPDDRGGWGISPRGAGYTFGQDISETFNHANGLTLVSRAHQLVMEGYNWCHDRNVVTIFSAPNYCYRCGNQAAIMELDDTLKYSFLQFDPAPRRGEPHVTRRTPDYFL
# T4 sequence (P67775 whole entry): as above
# T4 sequence (P78318 whole entry): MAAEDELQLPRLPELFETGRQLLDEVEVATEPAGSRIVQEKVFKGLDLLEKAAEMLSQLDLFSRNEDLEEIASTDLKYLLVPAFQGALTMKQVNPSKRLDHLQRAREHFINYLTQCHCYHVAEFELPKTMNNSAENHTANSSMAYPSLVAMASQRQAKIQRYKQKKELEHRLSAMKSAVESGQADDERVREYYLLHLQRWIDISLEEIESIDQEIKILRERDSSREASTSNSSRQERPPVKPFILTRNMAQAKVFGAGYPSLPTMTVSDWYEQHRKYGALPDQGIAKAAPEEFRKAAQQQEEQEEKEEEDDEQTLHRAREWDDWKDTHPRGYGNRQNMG
# T1 sequence (P63330 whole entry): as the sequence (P67775 whole entry) above, with V5L counted along it
# T2 sequence (P78318 whole entry): as the sequence (P78318 whole entry) above
# T2 sequence (P67775 whole entry): as the sequence (P67775 whole entry) above
smiles,measurement,setting,value
"CN(C)C(=N)N=C(N)N [metformin, Metformin]",activity of the immunopurified PP2A protein complex,PP2A-holoenzymes,significantly increased
same,ACC phosphorylation (Ser79),ACC,neither metformin (FIG. 4a) nor phenformin (FIG. 12) had an effect
same,"programmed cell death (percentage of apoptotic cells, TUNEL)",primary cortical neurons,did not cause a significant increase
same,ability to dephosphorylate S6,ribosomal protein S6,clearly apparent
same,effect on Ser202 phosphorylation of okadaic acid treated cells,"tau [1]; 10 nM okadaic acid prior to 2.5 mM metformin, 4 hours",no effect
same,phosphorylation of Ser202,"tau [1]; 100 nM, longer treatment (>24 hours)",decreased slightly
same,effect on Ser202 phosphorylation of fostriecin pre-treated cells,"tau [1]; 1 μM fostriecin prior to 2.5 mM metformin, 4 hours",did not have any effect
same,phosphorylation of Ser202,"tau [1]; 10 μM, longer treatment (>24 hours)",significantly reduced
same,phosphorylation of Ser202,tau [1]; 2.5 mM metformin alone over 4 hours,decreased significantly
same,"de-phosphorylation of PP2A dependent tau epitopes, dependence on time and dosage","tau [1]; 2.5 mM over time (Ser202, Ser262, Ser356), increasing concentration over 4 hours (Ser202)",increased with time (FIG. 2a) and dosage
same,phosphorylation of PP2A dependent tau epitope Ser202,tau [1]; [9],significant decrease
same,phosphorylation of PP2A dependent tau epitope Ser262,tau [1]; [9],significant decrease
same,phosphorylation of PP2A dependent tau epitope Ser356,tau [1]; [9],significant decrease
same,phosphorylation of the PP2A insensitive epitope Ser396,"tau [1]; 2.5 mM, increasing time intervals",did not change
same,dephosphorylation of tau (Ser 202),"tau [1]; 2.5 mM, medium without insulin",strong dephosphorylation effect
same,brain AMPK phosphorylation (pThr 172),AMPK [2],no induction
same,phosphorylation of human tau at Ser 202,human tau,reacted in the same way
same,brain de-phosphorylated form of tau at position Ser 202 (tau-1 antibody),tau [3],increase
same,brain tau Ser202 phosphorylation,tau [3],significant decrease
same,brain tau Ser262 phosphorylation,tau [3],significant decrease
same,brain tau Ser 396 phosphorylation (PP2A independent epitope),tau [3],no effect
same,phosphorylation of GSK3β at position Ser 9 (de-phosphorylation activates the enzyme),GSK3β,reduces the phosphorylation
same,phosphorylation of GSK3β at position Ser 9 (de-phosphorylation activates the enzyme),GSK3β; listed as Metformin,increases the activity of GSK3β
same,phosphatase (PP2A) activity in cell lysates,PP2A,significantly increased phosphatase activity
same,phosphorylation status of p70S6kinase,p70S6kinase,Results were confirmed
same,phosphorylation status of p70S6kinase,p70S6kinase; listed as Metformin,decrease of pS6kinase phosphorylation
same,level of metformin in the brain,[4],1 µM
same,peak plasma concentrations,[5],around 12 μM
same,S6 phosphorylation (S241/244),"[6]; 2.5 mM, within 4 h of exposure",significant dephosphorylation
same,S6 phosphorylation (S241/244),"[6]; increasing concentrations of metformin, 16 hours",dose dependent decrease
same,brain S6 phosphorylation,S6,significantly de-phosphorylated
same,AMPK phosphorylation (pThr 172),AMPK [7]; 2.5 mM for 10 hours,does induce AMPK phosphorylation significantly
same,AMPK phosphorylation (pThr 172),"AMPK [7]; 2.5 mM, shorter intervals of incubation than 10 hours",no significant effect
same,AMPK phosphorylation (pThr 172),AMPK [7]; smaller amounts than 2.5 mM for 24 hours,no significant effect
same,amount of PP2Ac associated with α4,α4-PP2Ac association,dissociation of α4 from PP2Ac
same,PP2A activity of purified PP2Ac,[8],no influence
same,elution of MID1 B-boxes and α4 from immobilized HIS-tagged PP2Ac,MID1-α4-PP2Ac complex,could be eluted from the column by adding metformin
